Data on three compounds can be found in US20070010525A1, “Method and compositions for modulating neuropeptide hormone secretion” (priority 2005, published 2007).

Assay [1] deals with posterior pituitary glands. Kind of assay: Oxytocin release from whole posterior pituitary glands (enzyme immunoassay). Format: cell-based, rats. Here is the method:
Posterior pituitary. Experiments were performed on posterior pituitary glands removed from rats of either sex, ranging in age from 1-3 months. Animals were rendered unconscious by inhalation of CO2, and killed by decapitation. Glands were removed rapidly to maintain tissue health, and transferred to physiological saline (in mM: 125 NaCl, 4 KCl, 26 NaHCO3, 1.25 NaH2PO4, 2 CaCl2, 1 MgCl2, 10 glucose) bubbled with 95% O2/5% CO2 (Jackson et al., 1991, Action potential broadening and frequency-dependent facilitation of calcium signals in pituitary nerve terminals. Proc. Roy. Soc. Lond. 88:380-384). For oxytocin release experiments the pituitary was kept intact. For electrophysiological recordings, slices of posterior pituitary were cut at 70 μm with a vibratome and maintained in physiological saline. Oxytocin release. Whole pituitary glands with attached axon bundle were placed in a chamber perfused with oxygenated physiological saline. Perfusion was stopped at ˜15 min intervals during measurements, when the physiological saline was substituted with a solution of a similar composition, but with the addition of 20 mM HEPES and NaHCO3, and NaH2PO4 reduced to zero. The pH was adjusted to 7.3 with NaOH. Basal release was measured after a 5 min waiting period (immediately before the stimulus application). The axon bundle was stimulated via a large-diameter, monopolar extracellular glass electrode. Oxytocin release was evoked by a series of 5 trains of 0.2 msec, 0.2 mA current pulses with a frequency of 25 Hz and a duration of 10 seconds. Trains were applied at 1 min intervals. Evoked release was measured 5 minutes after the end of stimulation by gently mixing the bath with a micropipette and collecting 10-20 μL samples in the vicinity of the tissue. Three separate samples were collected for each measurement (including basal release control). Perfusion of the oxygenated physiological saline was restored immediately after sample collection and sildenafil was added to the bath solution for 30-60 min. Recordings of the sildenafil effect on basal and evoked release were then repeated as described above. To control for possible rundown of release, measurements of sildenafil effects were in some cases substituted by the second control measurements. Oxytocin was measured in collected fluid using the Correlate-EIA enzyme immunoassay kit (Assay Designs, Ann Arbor, Mich.). Oxytocin concentration was inversely proportional to the yellow color generated by the immunoassay and was scanned into the computer using an automated micro plate reader at 405 nm. Actual oxytocin concentration was determined with a standard curve measured for each sample plate.

Assay [2] deals with BK channels in pituitary nerve terminals. Kind of assay: Patch clamp recordings of potassium current in posterior pituitary slices after photolysis of caged cGMP. Format: cell-based, rats. As to conditions: slices bathed in 15 μM sildenafil, control recovered in about 3 minutes. Here is the method:
Posterior pituitary. Experiments were performed on posterior pituitary glands removed from rats of either sex, ranging in age from 1-3 months. Animals were rendered unconscious by inhalation of CO2, and killed by decapitation. Glands were removed rapidly to maintain tissue health, and transferred to physiological saline (in mM: 125 NaCl, 4 KCl, 26 NaHCO3, 1.25 NaH2PO4, 2 CaCl2, 1 MgCl2, 10 glucose) bubbled with 95% O2/5% CO2 (Jackson et al., 1991, Action potential broadening and frequency-dependent facilitation of calcium signals in pituitary nerve terminals. Proc. Roy. Soc. Lond. 88:380-384). For oxytocin release experiments the pituitary was kept intact. For electrophysiological recordings, slices of posterior pituitary were cut at 70 μm with a vibratome and maintained in physiological saline. Electrophysiology. Recordings of K^+ current were made with patch pipettes filled with (in mM) 130 KCl, 10 NaCl, 10 HEPES, 4 Mg-ATP, 0.3 GTP, 5 EGTA, pH 7.3. Individual nerve terminals were identified in an upright DIC microscope, Jackson, 1993. Passive current flow and morphology in the terminal arborizations of the posterior pituitary. J. Neurophysiol. 69, 692-702, and voltage or current clamped with an EPC-7 patch clamp amplifier. […] The component of potassium current corresponding to BK channels (seen at the end of a 200 msec voltage step from −80 to 50 mV) was determined for each pulse. […]

For the next assay, the system named is pituitary nerve terminal. The following applies: after 5 or 10 seconds of high frequency stimulation; control ~30%; cited from earlier work.
[3] abbreviates: 7-NI 100 μM with sildenafil 10 μM.

For `O=[N+]([O-])c1cccc2cn[nH]c12` [7-NI, 7-nitorindazol], in assay [1] (setting [3]), the “effect on sildenafil-induced increase in basal oxytocin release” value is “blocked” and the “effect on sildenafil-induced increase in evoked oxytocin release” value is reported as “blocked”.
For `CCCc1nn(C)c2c(=O)[nH]c(-c3cc(S(=O)(=O)N4CCN(C)CC4)ccc3OCC)nc12` [Sildenafil, 5-[2-ethoxy-5-(4-methyl-1-piperazinylsulphonyl)phenyl]-1-methyl-3-n-propyl-1,6-dihydro-7H-pyrazolo [4,3-d]pyrimidin-7-one], the basal oxytocin release entry in assay [1] (sildenafil 10 μM, 30-60 min in bath) is listed as “insignificant increase”. For the same compound, the evoked oxytocin release result in assay [1] (sildenafil 10 μM, electrical stimulation of axon bundle) was “large and significant increase”. The figures for the “recovery of the cGMP-induced increase in potassium current” value in assay [2] and in assay [2] (listed as sildenafil) were “greatly slowing the recovery” and “failed to recover”, respectively.
As to `Nc1nc2c(ncn2[C@@H]2O[C@@H]3COP(=O)(O)O[C@H]3[C@H]2O)c(=O)[nH]1` [cGMP], in the assay on pituitary nerve terminal, the “success rate of stimulus pulses evoking action potentials” value is given as about 60%.
